According to PMC6753678, “Fueling Open Innovation for Malaria Transmission-Blocking Drugs: Hundreds of Molecules Targeting Early Parasite Mosquito Stages” (Frontiers in Microbiology, 2019):
Values joined by “and” are separate entries in the source; they are usually repeats but may differ in a detail not shown here. Equal entries are not always repeated. Where two headings read alike, the source gives them in different places.

What was measured:
[1] = test system: 3D7-strain P. falciparum asexual parasites; test: P. falciparum asexual growth inhibition assay (Pf GIA); assay type: cell-based, Plasmodium falciparum; conditions: Plasmodium falciparum
In short: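 Parasites at 0.25% parasitemia, 2% hematocrit in Albumax-supplemented RPMI were exposed to compounds in dose response for 72 h at 37°C under 5% CO2/5% O2. Viability was read as LDH activity (NBT/diaphorase, A650 after freeze-thaw). Percent inhibition was calculated against chloroquine and DMSO controls, mean of three biological replicates.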

HepG2 cytotoxicity assay = conditions: human, HepG2 cells
In short: (§1)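 Percent inhibition derived from fluorescent viability readout, normalised to DMSO (negative) and 50 μM doxorubicin (positive). Compound incubation lasted 48 h at 37°C, 5% CO2, with 2,500 HepG2 cells/well in MEM plus 10% FBS and 1% NEAA.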

HepG2 cells [2] = test: HepG2 cytotoxicity assay; conditions: for HepG2 cytoxicity: value reported with the Pb ODA screen; for IC50: Homo sapiens, HepG2, 48 h, read-out: IC50 HepG2
In short: as §1

[3] = test system: P. falciparum late stage (stages IV-V) gametocytes; parameters: method as in Almela et al 2016; conditions: TCAMS screen comparison; ref Almela et al 2016; read-out: Pf GCT ATP IC50; cited from earlier work
[4] = test system: P. falciparum female gametocytes; parameters: method as in Miguel-Blanco et al 2017; conditions: TCAMS screen comparison; ref Miguel-Blanco et al 2017; read-out: Pf FGAA IC50; cited from earlier work
HepG2 cells [5] = conditions: cited from earlier work
[6] = test system: P. berghei ookinete development; test: microbe, parasite or virus in culture; conditions: Plasmodium berghei
[7] = test system: P. berghei ookinete development; conditions: for IC50: read-out: IC50 Pb ODA, dose response, at least triplicate
[8] = test system: P. falciparum oocyst intensity; parameters: method as in Colmenarejo et al., 2018; conditions: 2 μM; ref Colmenarejo et al., 2018; cited from earlier work
[9] = test system: P. falciparum male gametogenesis; parameters: method as in Colmenarejo et al., 2018; conditions: 2 μM; ref Colmenarejo et al., 2018; cited from earlier work
[10] = test system: P. berghei oocyst intensity in Anopheles stephensi mosquitoes; test: P. berghei standard membrane feeding assay (Pb SMFA); conditions: for inhibition at 1 µM: read-out: % inhibition Pb SMFA 1 μM (±SEM), inhibition of oocyst intensity at 1 μM
[11] = test system: P. falciparum male gametocytes; test: P. falciparum Dual Gamete Formation Assay (Pf DGFA), male readout; conditions: for Pf DGFA Male, Expt 1 / Pf DGFA Male, Expt 2 / Pf DGFA Male, Expt 3 / Pf DGFA Male, Expt 4: 1µM; for % inhibition Pf DGFA (male) 1 μM (±SEM): mean of four experiments; for inhibition at 1 µM: Plasmodium falciparum, read-out: % inhibition Pf DGFA (male) 1 μM (±SEM), 1 μM, mean of four experiments
[12] = test system: P. falciparum female gametocytes; test: P. falciparum Dual Gamete Formation Assay (Pf DGFA), female readout; conditions: for Pf DGFA Female, Expt 1 / Pf DGFA Female, Expt 2 / Pf DGFA Female, Expt 3 / Pf DGFA Female, Expt 4: 1µM; for inhibition at 1 µM: Plasmodium falciparum, read-out: % inhibition Pf DGFA (female) 1 μM (±SEM), 1 μM, mean of four experiments
[13] = 3D7, dose response confirmation, read-out: Pf asexual growth inhibition assays IC50
[14] = value reported with the Pf FGAA screen, ref Miguel-Blanco et al 2017
[15] = value reported with the Pf GCT ATP screen, ref Almela et al 2016
[16] = read-out: % inhibition, Replicate A
[17] = read-out: % inhibition, Replicate B
[18] = read-out: Pb ODA IC50 (µM), this manuscript
[19] = read-out: Pb Ookinete development assay IC50 (µM), dose response confirmation
[20] = 3D7, 72 h, LDH readout, read-out: IC50 Pf Asexual
[21] = read-out: IC50 Pb ODA, dose response, at least triplicate

Structure (SMILES)	IC50 [1, 13] [nM]	IC50 at 48 h (HepG2 cytotoxicity assay) [nM]	Unified cytotox (HepG2 cells [2]; human) [µM]	HepG2 cytoxicity (HepG2 cells [2]; this manuscript) [µM]	IC50 [3] [nM]	IC50 [4] [nM]	inhibition at 1 µM [6, 16] [%]	inhibition at 1 µM [6, 17] [%]	IC50 [1, 20] [nM]	IC50 (HepG2 cells [2]) [nM]	IC50 [6, 21] [µM]	inhibition at 1 µM [10] [%]	Pf DGFA Male, Expt 1 [11]	Pf DGFA Male, Expt 2 [11]	Pf DGFA Male, Expt 3 [11]	Pf DGFA Male, Expt 4 [11]	Pf DGFA Female, Expt 1 [12]	Pf DGFA Female, Expt 2 [12]	Pf DGFA Female, Expt 3 [12]	Pf DGFA Female, Expt 4 [12]	further results
CC[C@H]1CN2CCc3cc(OC)c(OC)cc3[C@@H]2C[C@@H]1C[C@H]1NCCc2cc(OC)c(OC)cc21 [TCMDC-125531]	72	1550	10.78	1.55	350	2730	93.2	121													HepG2 cytoxicity (HepG2 cells [5]; [14]): 9.77 µM; HepG2 cytoxicity (HepG2 cells [5]; [15]): 21.03 µM; IC50 [6, 18]: 0.21 µM; IC50 [6, 19]: 0.213 µM
CCC1CN2CCc3cc(OC)c(OC)cc3C2CC1CC1NCCc2cc(OC)c(OC)cc21 (stereo not shown) [TCMDC-125849]	42	24000	14.64	23.99	120	1820	118	98.5	41.9	24000	0.268	71.4	77.97	55.40	60.36	68.13	99.68	99.20	99.79	98.70	IC50 [7]: > 250 nM and 268 nM; inhibition of oocyst intensity in P. falciparum [8]: 100%; inhibition of male gametogenesis in P. falciparum [9]: total inhibition; HepG2 cytoxicity (HepG2 cells [5]; [14]): 2.24 µM; HepG2 cytoxicity (HepG2 cells [5]; [15]): 17.68 µM; IC50 [6, 18]: 0.27 µM; % inhibition Pb SMFA 1 μM (±SEM) ([10]; inhibition of oocyst intensity at 1 μM): 71.4%; % inhibition Pf DGFA (male) 1 μM (±SEM) [11]: 65.46%; inhibition at 1 µM [11]: 65.5%; % inhibition Pf DGFA (female) 1 μM (±SEM) ([12]; 1 μM, mean of four experiments): 99.34%; inhibition at 1 µM [12]: 99.3%
NC(=O)c1ccccc1Nc1nc(Nc2cccc(N3CCN(CCO)CC3)c2)ncc1Cl [TCMDC-134114]	22	41700					106	96.7	21.5	41700	< 0.06	97	100.00	99.14	99.70	100.00	18.27	-46.13	-5.85	-25.02	Pb ODA (this manuscript) HepG2 cytoxicity (HepG2 cells [2]; HepG2 cytotoxicity listed with the Pb ODA data set (this manuscript)): 41.69 µM; Assay tox ratio Pb ODA (red: <10-fold selectivity; green: >10-fold) [7]: 747.08; Is compound selective in assay? Pb ODA active? [7]: 1 (key: 1: YES; 0: NO); IC50 ([6]; read-out: Pb ODA (this manuscript) IC50 (µM), P. berghei ookinete development assay, this manuscript): 0.0558 µM; IC50 [6, 19]: 0.056 µM; % inhibition Pf DGFA (male) 1 μM (±SEM) [11]: 99.71%; inhibition at 1 µM [12]: -14.7%
COc1ccc2ncc(F)c(CCN3CCC(NC(=O)c4ccc5c(n4)NC(=O)CS5)C(O)C3)c2n1 (stereo not shown) [TCMDC-135907]	2020	42200					99.8	69.5	2020	42200	> 0.25	56.2	27.09	-8.08	-8.79	59.50	25.41	-9.01	-10.92	-26.87	HepG2 cytoxicity (Pb ODA, this manuscript) (HepG2 cells [2]; HepG2, this manuscript): 42.17 µM; Unified cytotox (HepG2 cells [2]; HepG2 values of the three screens unified): 42.17 µM; Is compound selective in assay? Pb ODA active? ([7]; 1: YES, 0: NO): 1 (1: YES); IC50 [7]: 381 nM; IC50 ([6]; read-out: Pb ODA IC50, this manuscript): 0.38 µM; inhibition at 1 µM [11]: 17.4%
